The NIST ThermoML archive (doi:10.1021/je900134z)

Key:
[1] = for mass density / viscosity: 101.33 kPa, Liquid; for viscosity: Surface Light Scattering; for surface tension liquid-gas: Drop weight
[2] = refractive index (Na D-line) (dimensionless); details: 101.33 kPa, Liquid

CCCCn1cc[n+](CCCC)c1.O=S(=O)([N-]S(=O)(=O)C(F)(F)F)C(F)(F)F
Details	mass density [kg/m3]	refractive index	surface tension liquid-gas [mN/m]	viscosity [mPa·s]
[1], 273.15 K	1362.73	–	–	277.9
[1], 278.15 K	1358.06	–	–	203
[1], 283.15 K	1353.51	–	–	152.1
[1], 288.15 K	1349.01	–	–	115.3
[1], 293.15 K	1344.5	–	29.55	89.5
[1], 298.15 K	1340.01	–	–	–
[1], 303.15 K	1335.51	–	–	57.2
[1], 308.15 K	1331.02	–	–	–
[1], 313.15 K	1326.56	–	–	37.9
[1], 318.15 K	1322.09	–	–	–
[1], 323.15 K	–	–	–	26.5
[1], 328.15 K	1313.2	–	–	–
[1], 333.15 K	1308.77	–	–	19.2
[1], 338.15 K	1304.36	–	–	–
[1], 343.15 K	1299.99	–	–	–
[1], 348.15 K	1295.57	–	–	–
[1], 353.15 K	1291.2	–	–	–
[1], 358.15 K	1286.84	–	–	–
[1], 363.15 K	1282.5	–	–	–
[2], 283.15 K	–	1.4376	–	–
[2], 293.15 K	–	1.4347	–	–
[2], 303.15 K	–	1.4324	–	–
[2], 313.15 K	–	1.4298	–	–

CCn1cc[n+](C)c1.CS(=O)(=O)[O-] [1-ethyl-3-methylimidazolium methanesulfonate]
Details	mass density [kg/m3]	refractive index	surface tension liquid-gas [mN/m]	viscosity [mPa·s]
[1], 273.15 K	1259.14	–	–	1112.6
[1], 278.15 K	1255.59	–	–	676.3
[1], 283.15 K	1252.04	–	–	435.5
[1], 288.15 K	1248.49	–	–	290.1
[1], 293.15 K	1244.96	–	50.72	205.2
[1], 298.15 K	1241.52	–	–	–
[1], 303.15 K	1238.15	–	–	112.9
[1], 308.15 K	1234.77	–	–	–
[1], 313.15 K	1231.4	–	–	69
[1], 318.15 K	1228.03	–	–	–
[1], 323.15 K	–	–	–	44.6
[1], 328.15 K	1221.33	–	–	–
[1], 333.15 K	1218	–	–	31.7
[1], 338.15 K	1214.69	–	–	–
[1], 343.15 K	1211.38	–	–	–
[1], 348.15 K	1208.09	–	–	–
[1], 353.15 K	1204.82	–	–	–
[1], 358.15 K	1201.56	–	–	–
[1], 363.15 K	1198.31	–	–	–
[2], 283.15 K	–	1.5018	–	–
[2], 293.15 K	–	1.4996	–	–
[2], 303.15 K	–	1.4977	–	–
[2], 313.15 K	–	1.4949	–	–

CCn1cc[n+](C)c1.CO[PH](=O)[O-] [1-ethyl-3-methylimidazolium methyl phosphonate]
Details	mass density [kg/m3]	refractive index	surface tension liquid-gas [mN/m]	viscosity [mPa·s]
[1], 273.15 K	1208.75	–	–	563.9
[1], 278.15 K	1205.29	–	–	379.6
[1], 283.15 K	1201.82	–	–	266.6
[1], 288.15 K	1198.42	–	–	193.2
[1], 293.15 K	1195.12	–	45.49	143.1
[1], 298.15 K	1191.82	–	–	–
[1], 303.15 K	1188.5	–	–	83.4
[1], 308.15 K	1185.21	–	–	–
[1], 313.15 K	1181.92	–	–	53.9
[1], 318.15 K	1178.65	–	–	–
[1], 323.15 K	1175.39	–	–	36.4
[1], 328.15 K	1172.14	–	–	–
[1], 333.15 K	1168.89	–	–	27.4
[1], 338.15 K	1165.66	–	–	–
[1], 343.15 K	1162.45	–	–	–
[1], 348.15 K	1159.25	–	–	–
[1], 353.15 K	1156.06	–	–	–
[1], 358.15 K	1152.9	–	–	–
[1], 363.15 K	1149.73	–	–	–
[2], 283.15 K	–	1.4969	–	–
[2], 293.15 K	–	1.4935	–	–
[2], 303.15 K	–	1.4928	–	–
[2], 313.15 K	–	1.4902	–	–

CCCCCCCCOS(=O)(=O)[O-].CCn1cc[n+](C)c1 [1-ethyl-3-methylimidazolium octyl sulfate]
Details	mass density [kg/m3]	refractive index	surface tension liquid-gas [mN/m]	viscosity [mPa·s]
[1], 273.15 K	1111.56	–	–	3894.8
[1], 278.15 K	1108	–	–	2429.9
[1], 283.15 K	1104.34	–	–	1578.5
[1], 288.15 K	1100.82	–	–	1045.1
[1], 293.15 K	1097.48	–	31	717.8
[1], 298.15 K	1094.15	–	–	–
[1], 303.15 K	1090.83	–	–	368.1
[1], 308.15 K	1087.52	–	–	–
[1], 313.15 K	1084.2	–	–	208.1
[1], 318.15 K	1080.97	–	–	–
[1], 323.15 K	–	–	–	126.2
[1], 328.15 K	1074.55	–	–	–
[1], 333.15 K	1071.34	–	–	80.9
[1], 338.15 K	1068.14	–	–	–
[1], 343.15 K	1064.94	–	–	–
[1], 348.15 K	1061.76	–	–	–
[1], 353.15 K	1058.59	–	–	–
[1], 358.15 K	1055.42	–	–	–
[1], 363.15 K	1052.26	–	–	–
[2], 283.15 K	–	1.4786	–	–
[2], 293.15 K	–	1.4766	–	–
[2], 303.15 K	–	1.4737	–	–
[2], 313.15 K	–	1.4712	–	–
